In US20140329868A1, “METHODS FOR TREATING HYPERTENSION” (TAKEDA PHARMACEUTICALS U.S.A., INC., priority 2005, published 2014):

How the values were obtained:
[1] = tested on: oxonic acid (OA)-induced hyperuricemic model in Sprague-Dawley rats; test: Example 4: micropuncture glomerular hemodynamics and mean arterial pressure under anesthesia in normal and OA-dosed rats; format: in vivo; details: for mean arterial blood pressure (effect in words): end of study, FIG. 3
Method: Materials and Methods. To produce hyperuricemia, rats received OA (Sigma, St Louis Mo., USA) 750 mg/kg body weight daily by gastric gavage. To investigate the treatment effect of febuxostat (also referred to herein as “Fx”), the drug was administered in drinking water at 50 mg/L (approximately 5-6 mg/kg/day) four weeks after OA dosing while the respective controls received 5.84 mg/L of NaCl in drinking water (to maintain a salt concentration equivalent to the Febuxostat-containing water). The following four groups (n=10-11) were included in the study: Group 1, normal control rats which received no treatment for eight weeks; Group 2, Normal+Febuxostat rats which received no treatment for four weeks and then were treated with febuxostat for four weeks from Weeks 5 to 8; Group 3, OA rats which received OA for eight weeks; and Group 4, OA+Febuxostat rats which received OA for eight weeks and febuxostat for four weeks from Weeks 5 to 8. Body weight, food and water intakes were measured daily. Systolic blood pressure, obtained in conscious rats by a tail cuff sphygmomanometer, and plasma uric acid were measured in all animals at baseline and at the end of four and eight weeks. A renal micropuncture procedure along with systemic arterial blood pressure monitoring under pentobarbital anesthesia were performed at the end of eight weeks followed by morphologic evaluation of the renal preglomerular microvasculature.
Micropuncture Procedure to Assess Glomerular Hemodynamics. Animals were anesthetized with pentobarbital sodium (30 mg/kg, i.p.) and placed on a thermoregulated table to maintain body temperature at 37° C. Trachea, jugular veins, femoral arteries and the left ureter were catheterized with polyethylene tubing (PE-240, PE-50 and PE-10). The left kidney was exposed, placed in a Lucite holder, sealed with agar and covered with Ringer's solution. Mean arterial pressure (hereinafter “MAP”) was monitored using a pressure transducer (Model p23 db; Gould, San Juan, PR) connected to the catheter in the femoral artery and recorded on a polygraph (Grass Instruments, Quincy, Mass., USA). Blood samples were taken periodically and replaced with blood from a donor rat. Rats were maintained under euvolemic conditions by infusion of 10 mL/kg of body weight of isotonic rat plasma during surgery, followed by an infusion of 25% polyfructosan at 2.2 mL/h (Mutest, Fresenius Kabi, Linz, Austria). After 60 min, five to seven samples of proximal tubular fluid were obtained to determine flow rate and polyfructosan concentrations. Intratubular pressure under free-flow (hereinafter “FF”) and stop-flow (hereinafter “SFP”) conditions and peritubular capillary pressure (hereinafter “Pc”) were measured in other proximal tubules with a servo-null device (Servo Nulling Pressure System; Instrumentation for Physiology and Medicine, San Diego, Calif., USA). Glomerular colloid osmotic pressure was estimated from protein concentrations obtained from blood of the femoral artery (hereinafter “Ca”) and surface efferent arterioles (hereinafter “Ce”). Polyfructosan was measured in plasma and urine samples by the anthrone-based technique of Davidson and Sackner (See, Davidson W D et al., J Lab Clin Med 62:351-356 (1963)). Plasma samples were deproteinated first with trichloroacetic acid. After centrifugation, the supernatant was used for polyfructosan measurement. Polyfructosan concentrations in plasma and urine samples were assessed by addition of anthrone reagent followed by incubation at 45° C. for 50 min and reading in a spectrophotometer set at wavelength of 620 nm. Concentrations were calculated by interpolating the absorbance values using a standard curve (0.01-0.05 mg/mL). Total glomerular filtration rate (hereinafter “GFR”) was calculated using the following formula: GFR=(U×V)/P, where U is the polyfructosan concentration in urine, V is urine flow rate, and P is the polyfructosan concentration in plasma. […]

[2] = tested on: oxonic acid (OA)-induced hyperuricemic model in Sprague-Dawley rats; test: Example 4: renal arteriolar morphology in normal and OA-dosed rats; format: in vivo
Method: Materials and Methods. To produce hyperuricemia, rats received OA (Sigma, St Louis Mo., USA) 750 mg/kg body weight daily by gastric gavage. To investigate the treatment effect of febuxostat (also referred to herein as “Fx”), the drug was administered in drinking water at 50 mg/L (approximately 5-6 mg/kg/day) four weeks after OA dosing while the respective controls received 5.84 mg/L of NaCl in drinking water (to maintain a salt concentration equivalent to the Febuxostat-containing water). The following four groups (n=10-11) were included in the study: Group 1, normal control rats which received no treatment for eight weeks; Group 2, Normal+Febuxostat rats which received no treatment for four weeks and then were treated with febuxostat for four weeks from Weeks 5 to 8; Group 3, OA rats which received OA for eight weeks; and Group 4, OA+Febuxostat rats which received OA for eight weeks and febuxostat for four weeks from Weeks 5 to 8. Body weight, food and water intakes were measured daily. Systolic blood pressure, obtained in conscious rats by a tail cuff sphygmomanometer, and plasma uric acid were measured in all animals at baseline and at the end of four and eight weeks. […]
Renal Histology and Quantification of Morphology. […] Arteriolar morphology was assessed by indirect peroxidase immunostaining for alpha smooth-muscle actin (DAKO Corp, Carpinteria, Calif., USA). […]
For each arteriole, the outline of the vessel and its internal lumen (excluding the endothelium) were generated using computer analysis to calculate the total medial area (outline−inline) in 10 arterioles per biopsy. The media/lumen ratio was calculated by the outline/inline relationship (See, Sanchez-Lozada L G, et al., Am J Physiol Renal Physiol 283:F1105-F1110, (2002) and Sanchez-Lozada L G, et al., Kidney Int 67:237-247 (2005)). Quantifications were performed blinded.
Statistical Analysis. Values were expressed as mean±standard error of the mean (hereinafter “SEM”). In the study, values from the respective four treatment groups were analyzed by one-way analysis of variance (hereinafter “ANOVA”). […]

[3] = Normal + FX rats, end of eight weeks
[4] = OA + Fx rats, end of eight weeks

Q: Cc1nc(-c2ccc(OCC(C)C)c(C#N)c2)sc1C(=O)O [febuxostat, 2-[3-cyano-4-(2-methylpropoxy)phenyl]-4-methylthiazole-5-carboxylic acid] was tested. Which “FF (free flow tubular pressure)” value [1, 3] did it give?
A: Its value is 13.4 ± 0.8 mmHg.

Q: And the “GFR (glomerular filtration rate)” value [1, 3]?
A: Its value is 0.9 ± 0.1 mL/min.

Q: What about the “Kf (ultrafiltration coefficient)” value [1, 3] of the same compound?
A: The value was 0.046 ± 0.004 nL/s · mmHg.

Q: What about the “PGC (glomerular capillary pressure)” value [1, 3] of the same compound?
A: Its value is 46.3 ± 1.4 mmHg.

Q: What about the “Pc (peritubular capillary pressure)” value [1, 3] of the same compound?
A: Its value is 12.5 ± 0.8 mmHg.

Q: What about the “QA (glomerular plasma flow)” value [1, 3] of the same compound?
A: Its value is 135.0 ± 11.2 nL/min.

Q: What about the “SFP (stop flow pressure)” value [1, 3] of the same compound?
A: Its value is 30.7 ± 0.8 mmHg.

Q: What about the “SNGFR (single nephron GFR)” value [1, 3] of the same compound?
A: Its value is 34.6 ± 2.3 nL/min.

Q: What about the “MAP (mean arterial pressure)” value ([1]; Normal + FX rats, end of eight weeks, under anesthesia) of the same compound?
A: The value was 123 ± 3 mmHg.

Q: And the “FF (free flow tubular pressure)” value [1, 4]?
A: Its value is 12.9 ± 0.5 mmHg.

Q: What about the “GFR (glomerular filtration rate)” value [1, 4] of the same compound?
A: Its value is 1.0 ± 0.1 mL/min.

Q: And the “Kf (ultrafiltration coefficient)” value [1, 4]?
A: The value was 0.070 ± 0.011 nL/s · mmHg.

Q: What about the “PGC (glomerular capillary pressure)” value [1, 4] of the same compound?
A: Its value is 46.5 ± 1.0 mmHg.

Q: What about the “Pc (peritubular capillary pressure)” value [1, 4] of the same compound?
A: Its value is 13.2 ± 0.7 mmHg.

Q: And the “QA (glomerular plasma flow)” value [1, 4]?
A: Its value is 183.6 ± 21.4 nL/min.

Q: What about the “SFP (stop flow pressure)” value [1, 4] of the same compound?
A: Its value is 29.7 ± 1.0 mmHg.

Q: What about the “SNGFR (single nephron GFR)” value [1, 4] of the same compound?
A: The value was 45.7 ± 5.2 nL/min.

Q: What about the “ultrafiltration coefficient (Kf) compared to the other groups (in words)” value [1, 4] of the same compound?
A: Its value is “numerically, but insignificantly higher”.

Q: What about the “MAP (mean arterial pressure)” value ([1]; OA + Fx rats, end of eight weeks, under anesthesia, listed as Fx) of the same compound?
A: Its value is 112 ± 5 mmHg.

Q: And the “elevation in glomerular capillary pressure (PGC) and stop flow pressure (effect in words)” value ([1]; OA-treated rats, end of eight weeks)?
A: The value was “prevented these changes”.

Q: And the “mean arterial blood pressure (effect in words)” value ([1]; OA-treated rats, intra-arterial cannulation under anesthesia)?
A: Its value is “reduced to the normal range”.

Q: And the “glomerular hemodynamics (effect in words)” value ([1]; normal rats, end of eight weeks)?
A: Its value is “did not alter glomerular hemodynamics”.

Q: And the “mean arterial blood pressure (effect in words)” value ([1]; normal rats, under anesthesia)?
A: The value was “did not alter MAP”.

Q: What about the “thickening of the afferent arteriole (medial area), effect in words” value ([2]; OA-treated rats, FIG. 4) of the same compound?
A: The value was “able to alleviate this thickening”.

Q: What about the “arteriolar media-lumen ratio (effect in words)” value ([2]; OA-treated rats, FIG. 5) of the same compound?
A: Its value is “significantly reduced”.

Q: And the “arteriolar morphology (effect in words)” value ([2]; normal rats)?
A: Its value is “no effect on arteriolar morphology”.
